Laboratory results as given in publication PMC5062470, “The mGluR2 positive allosteric modulator, SAR218645, improves memory and attention deficits in translational models of cognitive symptoms associated with schizophrenia” (Scientific Reports, 2016).

Experiments:
[1] = test system: OF1 mice; test: Maximal electroshock seizure (MES) test; assay type: in vivo
Protocol: SAR218645 (30 mg/kg, po) and the reference anticonvulsant agent, diazepam (10 mg/kg), were administered ip to OF1 mice (12–14 g) 30 min prior to test, respectively. An electrical stimulus (60 Hz, 0.8 ms rectangular pulse, 0.4 s duration, 50 mA) was applied to both corneas. The occurrence of tonic extension of the hindlimbs was noted.

[2] = target: T1, native mouse mGluR2 (Mus musculus, UniProt Q14BI2); test: [35S]GTPγS binding to mouse cortex; assay type: biochemical; conditions: absence of glutamate
T1 construct: SAR218645 acted as a pure mGluR2 PAM at native mouse mGluR2 in the cortex; from tissue; host or cells: mouse cortex membranes
Protocol: The assay was performed in 96-well filtration plates in 250 μl total volume. […] For termination of the reaction, the plate was filtered and dried prior to adding 50 μl Microscint 40, and counted on the 1450 TopCount Microbeta Counter. EC50 were calculated using 4-parameter curve fitting.

[3] = test system: DAT−/− mice; test: Spontaneous locomotor hyperactivity of transgenic mice; assay type: in vivo
Protocol: (§1) An actimeter device consisting of a cylinder (20 cm diameter, 9.5 cm height, Apelex, France) equipped with two perpendicular light beams located 1.5 cm above the floor was used. Mice from the transgenic batches (DAT^−/− and NMDA Nr1^neo−/−) were orally pretreated with either SAR218645 or vehicle and individually isolated in boxes for a period of 60 min. Animals were then placed in the actimeter device and locomotor activity (number of interrupted light beams) was recorded for a period of 30 or 60 min. Mice in which the expression of the dopamine transporter (DAT) was knocked out (i.e., the DAT^−/− mouse) have been proposed as a reliable model of the positive symptoms of schizophrenia. In these mice, dopamine levels in the synapse are dramatically elevated and these animals are hyperactive and agitated in behavioral tests. NMDA Nr1^neo−/− mice express only 5 to 10% of normal levels of the NR1 subunit of the NMDA receptor[33], thus mimicking a hypo-glutamatergic state. […] As such, they have been proposed as an animal model of schizophrenia. […] As such, in our present experiments, a relatively moderate dose of amphetamine (2 mg/kg ip) or MK-801 (0.2 mg/kg, ip) was used to selectively induce similar hyperactivity, with no noticeable appearance of stereotyped behaviors in normal mice. For amphetamine or MK-801 antagonism experiments, male Swiss mice (20–30 g) were orally pretreated with SAR218645, haloperidol or vehicle, immediately individually isolated in a Plexiglas box, followed 30 min later by administration of vehicle, amphetamine or MK-801. Immediately following amphetamine challenge, 30 min after MK-801 challenge, mice were placed in the actimeter devices and locomotor activity was recorded for a period of 30 (DAT^−/−) or 60 (NMDA Nr1^neo−/−) min.
(§2) Statistical analyses were performed using SAS V8.2 software (SAS Institute, Cary, NC, USA). The number of light beam breaks (motility count) recorded for 30 or 60 min were analyzed using one-way ANOVAs using a fixed factor of challenge or genotype and complementary post hoc (Newman-Keuls) tests were performed. Five to nine animals per group were used.

[4] = test system: NMDA Nr1neo−/− mice; test: as above; assay type: in vivo
Protocol: as §1, §2

[5] = target: rat mGluR2 (Rattus norvegicus, UniProt P31421); test: [3H]LY341495 binding to membranes; set-up: expressed in transfected cells; host or cells: inducible HEK-293 cell line (membranes); conditions: 10 μM SAR218645
Protocol: Binding assay was adapted from Johnson et al.[29]. […] Addition of 5–10 μg membrane protein initiated the incubation. After 45 min at room temperature, the incubation was terminated by rapid filtration followed by scintillation counting. Ki’s were calculated using 4-parameter curve fitting.

[6] = target: T2, rat mGluR3 (Rattus norvegicus, UniProt P31422); test: [3H]LY341495 binding to membranes
T2 construct: expressed in transfected cells; host or cells: inducible HEK-293 cell line (membranes)
Protocol: Membranes were prepared from an inducible HEK-293 cell line expressing rat mGluR2 or mGluR3. Binding assay was adapted from Johnson et al.[29]. Briefly, [^3H]LY341495 (1.4 nM) was evaluated for binding in the presence or in the absence of orthosteric and allosteric ligands. […] Addition of 5–10 μg membrane protein initiated the incubation. After 45 min at room temperature, the incubation was terminated by rapid filtration followed by scintillation counting. Ki’s were calculated using 4-parameter curve fitting.

[7] = target: T3, human mGluR1 (Homo sapiens, UniProt Q13255); test: Multispan Allosteric Profiling panel, Ca2+ (Gqi5); assay type: cell-based
T3 construct: host or cells: HEK293 co-expressing Gqi5

[8] = test system: NMDA Nr1neo−/− mice; test: Y-maze test; assay type: in vivo
Protocol: The apparatus consisted of 3 arms in gray PVC in the shape of a Y. Arms were 28 cm long, 6 cm wide with walls 15 cm high. Movement was tracked manually using in-house software by an experimenter located in an adjacent room via a camera mounted directly above the maze. The animal was placed in an arm facing the center (Arm A) for 5 min. A correct alternation occurred when the animal moved to the other 2 arms without retracing its steps (i.e. Arm A to B to C). Movements such as ABA were incorrect. Based on the movement over the entire session, the percentage of correct alternations was calculated [i.e., (Total number of alternations × 100)/(Total number of arm entries-2)]. SAR218645 was administered po at 0.1 mg/kg 60 min prior to testing to either wild-type or NMDA Nr1^neo−/− mice. No dose-response effect was investigated due to the limited number of transgenic animals available. Statistics performed on total arm entries and percentage alternation consisted of using a two-way ANOVA, followed by a post-hoc Winer test for individual comparisons. Student’s t-test was used to compare the performance of each group with the chance level. Ten to eleven animals per group were used.

Chain of rat mGluR2 (P31421 19-872): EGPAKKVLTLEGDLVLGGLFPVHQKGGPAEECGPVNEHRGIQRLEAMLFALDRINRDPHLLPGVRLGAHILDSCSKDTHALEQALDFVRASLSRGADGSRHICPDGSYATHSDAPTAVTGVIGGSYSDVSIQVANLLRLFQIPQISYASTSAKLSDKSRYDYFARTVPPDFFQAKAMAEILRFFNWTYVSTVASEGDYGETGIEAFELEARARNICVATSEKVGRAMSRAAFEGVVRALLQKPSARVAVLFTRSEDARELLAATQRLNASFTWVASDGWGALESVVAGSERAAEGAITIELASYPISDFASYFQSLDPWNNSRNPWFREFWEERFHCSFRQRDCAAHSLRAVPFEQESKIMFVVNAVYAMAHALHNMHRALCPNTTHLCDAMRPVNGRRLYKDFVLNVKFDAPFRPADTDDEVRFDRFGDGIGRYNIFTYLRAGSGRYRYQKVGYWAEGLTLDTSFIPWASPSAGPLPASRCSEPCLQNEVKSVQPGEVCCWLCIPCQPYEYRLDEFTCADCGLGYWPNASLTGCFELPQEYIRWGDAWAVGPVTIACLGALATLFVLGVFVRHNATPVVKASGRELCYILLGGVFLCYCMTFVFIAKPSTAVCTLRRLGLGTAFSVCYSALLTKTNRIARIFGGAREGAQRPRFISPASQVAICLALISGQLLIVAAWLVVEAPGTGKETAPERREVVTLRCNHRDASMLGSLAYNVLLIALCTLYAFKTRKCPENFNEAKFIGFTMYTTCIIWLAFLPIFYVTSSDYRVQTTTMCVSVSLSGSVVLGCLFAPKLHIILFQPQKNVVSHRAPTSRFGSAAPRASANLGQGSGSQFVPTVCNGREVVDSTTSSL
T3 sequence (Q13255 19-1194): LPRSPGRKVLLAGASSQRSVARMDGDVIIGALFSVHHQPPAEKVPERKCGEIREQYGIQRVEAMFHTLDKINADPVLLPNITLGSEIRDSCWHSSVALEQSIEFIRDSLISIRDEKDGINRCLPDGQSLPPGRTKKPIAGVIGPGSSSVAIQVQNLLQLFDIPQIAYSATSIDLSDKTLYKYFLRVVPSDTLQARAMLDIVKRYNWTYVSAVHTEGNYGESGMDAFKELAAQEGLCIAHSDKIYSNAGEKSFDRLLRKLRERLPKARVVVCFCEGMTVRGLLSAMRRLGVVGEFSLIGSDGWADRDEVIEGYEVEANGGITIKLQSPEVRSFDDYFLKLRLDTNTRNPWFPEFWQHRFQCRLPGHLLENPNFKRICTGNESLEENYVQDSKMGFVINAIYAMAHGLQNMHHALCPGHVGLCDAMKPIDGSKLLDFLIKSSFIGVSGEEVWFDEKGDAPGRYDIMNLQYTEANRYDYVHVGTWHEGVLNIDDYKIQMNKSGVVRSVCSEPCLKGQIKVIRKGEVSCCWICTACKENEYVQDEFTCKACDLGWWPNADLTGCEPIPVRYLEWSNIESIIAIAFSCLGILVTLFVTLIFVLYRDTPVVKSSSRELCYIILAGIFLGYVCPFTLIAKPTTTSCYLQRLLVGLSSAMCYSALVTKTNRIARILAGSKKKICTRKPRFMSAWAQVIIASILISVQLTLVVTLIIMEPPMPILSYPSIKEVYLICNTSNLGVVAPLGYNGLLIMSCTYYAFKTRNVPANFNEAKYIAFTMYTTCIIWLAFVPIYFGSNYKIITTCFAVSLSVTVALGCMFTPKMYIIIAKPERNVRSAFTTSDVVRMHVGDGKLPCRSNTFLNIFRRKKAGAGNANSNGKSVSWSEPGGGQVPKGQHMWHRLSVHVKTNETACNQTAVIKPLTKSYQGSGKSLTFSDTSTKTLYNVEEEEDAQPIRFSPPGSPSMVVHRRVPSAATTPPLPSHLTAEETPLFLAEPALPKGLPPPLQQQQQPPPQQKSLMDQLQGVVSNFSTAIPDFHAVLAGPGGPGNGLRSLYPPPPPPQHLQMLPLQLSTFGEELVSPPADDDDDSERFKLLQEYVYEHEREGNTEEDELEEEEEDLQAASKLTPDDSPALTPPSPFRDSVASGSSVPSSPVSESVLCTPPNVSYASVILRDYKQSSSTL
T2 sequence (P31422 23-879): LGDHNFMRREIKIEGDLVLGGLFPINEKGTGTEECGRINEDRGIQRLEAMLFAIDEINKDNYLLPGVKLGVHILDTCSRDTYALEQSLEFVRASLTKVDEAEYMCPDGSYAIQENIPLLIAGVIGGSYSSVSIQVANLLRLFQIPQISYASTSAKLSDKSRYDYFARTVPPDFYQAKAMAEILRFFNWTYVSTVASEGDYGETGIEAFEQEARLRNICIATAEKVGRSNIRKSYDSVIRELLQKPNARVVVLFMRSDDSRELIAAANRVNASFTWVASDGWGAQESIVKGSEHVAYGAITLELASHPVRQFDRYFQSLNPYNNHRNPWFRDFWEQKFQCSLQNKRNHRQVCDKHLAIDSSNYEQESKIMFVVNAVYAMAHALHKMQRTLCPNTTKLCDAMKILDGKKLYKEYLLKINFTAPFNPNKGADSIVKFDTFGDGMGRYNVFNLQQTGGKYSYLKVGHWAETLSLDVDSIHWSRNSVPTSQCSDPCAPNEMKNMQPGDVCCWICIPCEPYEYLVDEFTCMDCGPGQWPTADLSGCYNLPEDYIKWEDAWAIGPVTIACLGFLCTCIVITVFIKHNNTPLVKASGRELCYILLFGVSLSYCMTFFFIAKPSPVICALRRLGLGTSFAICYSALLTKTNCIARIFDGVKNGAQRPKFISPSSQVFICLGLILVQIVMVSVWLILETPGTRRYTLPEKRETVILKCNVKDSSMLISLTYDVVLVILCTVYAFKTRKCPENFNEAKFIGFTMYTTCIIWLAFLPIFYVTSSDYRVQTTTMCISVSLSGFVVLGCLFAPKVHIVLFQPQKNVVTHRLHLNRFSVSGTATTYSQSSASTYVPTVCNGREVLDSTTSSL
T1 sequence (Q14BI2 19-872): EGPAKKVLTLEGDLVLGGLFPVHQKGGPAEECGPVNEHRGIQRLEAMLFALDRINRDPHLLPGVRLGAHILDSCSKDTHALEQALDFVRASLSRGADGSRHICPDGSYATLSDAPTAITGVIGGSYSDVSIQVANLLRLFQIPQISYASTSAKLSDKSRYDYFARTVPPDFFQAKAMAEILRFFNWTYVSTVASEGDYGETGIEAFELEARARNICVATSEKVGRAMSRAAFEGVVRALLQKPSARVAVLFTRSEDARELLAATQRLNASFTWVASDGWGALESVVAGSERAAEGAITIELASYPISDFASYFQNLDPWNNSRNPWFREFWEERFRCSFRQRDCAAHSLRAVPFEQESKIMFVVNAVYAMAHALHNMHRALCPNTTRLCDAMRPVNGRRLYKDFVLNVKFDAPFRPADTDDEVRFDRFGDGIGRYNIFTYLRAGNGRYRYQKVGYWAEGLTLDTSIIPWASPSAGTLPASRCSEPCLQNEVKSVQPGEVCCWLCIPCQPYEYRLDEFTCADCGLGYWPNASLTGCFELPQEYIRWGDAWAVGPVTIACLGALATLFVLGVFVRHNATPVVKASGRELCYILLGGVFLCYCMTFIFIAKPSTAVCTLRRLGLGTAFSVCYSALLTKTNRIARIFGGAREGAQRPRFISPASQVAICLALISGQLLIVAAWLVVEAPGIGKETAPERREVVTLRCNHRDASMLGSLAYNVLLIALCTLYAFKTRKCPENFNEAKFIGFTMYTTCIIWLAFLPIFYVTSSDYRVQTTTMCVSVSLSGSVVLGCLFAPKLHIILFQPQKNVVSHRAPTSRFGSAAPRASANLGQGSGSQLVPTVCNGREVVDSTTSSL

## CC1(C)CCc2cc(OC[C@@H]3Cn4ccc(=O)nc4O3)ccc21 [SAR218645, (S)-2-(1,1-dimethyl-indan-5-yloxymethyl)-2,3-dihydro-oxazolo[3,2-a]pyrimidin-7-one]
[1]; 30 mg/kg ip
  Tonic seizures: 100%
[1]; 30, ip, OF1 mice
  Minimal active dose: >30 mg/kg
[2]
  intrinsic activity: did not have any intrinsic activity
[3]; DAT−/− mice, SAR218645 po
  effect on locomotor activity: no effects
[3]; dose-range 3–10, po
  Minimal active dose: >10 mg/kg
[4]; NMDA Nr1neo−/− mice, SAR218645 po
  effect on locomotor activity: no effects
[4]; dose-range 1–10, po
  Minimal active dose: >10 mg/kg
[5]
  inhibition of [3H]LY341495 binding by compound alone: not inhibited
  lowering of the Ki of glutamate: 3.5 fold
[5]; Fig. 5B
  maximal binding, glutamate in the presence of SAR218645: 90%
[6]; applied alone
  effect on [3H]LY341495 binding, compound alone: no effect
[6]; with glutamate
  effect on glutamate-mediated inhibition of [3H]LY341495 binding: nor did the drug affect
[7]; 10 μM SAR218645
  effect on glutamate-induced activation: no effect
[7]; SAR218645 alone
  calcium response to compound alone: did not elicit a calcium response
[8]; 0.1 mg/kg po, P < 0.05
  spontaneous alternations versus saline-treated transgenic animals: significantly more spontaneous alternations
[8]; 0.1, po
  Minimal active dose: 0.1 mg/kg
